Test results reported in patent EP2848693A1, “Concatenation of halogenated alkenyl diphosphate derivatives” (LANXESS Deutschland GmbH, priority 2013, dated 2015).

Experiments:
[1] = molecular target: T1, E. coli Undecaprenyldiphosphatsynthase (EcUPPS) (Escherichia coli, UniProt P60472); test: MTP phosphate detection assay (diphosphate release, BIOMOL Green), substrate kinetics; format: biochemical; conditions: elongation substrate varied, starter FPP 10 µM
T1 construct: made in house; host or cells: E. coli
T1 sequence (P60472 1-253): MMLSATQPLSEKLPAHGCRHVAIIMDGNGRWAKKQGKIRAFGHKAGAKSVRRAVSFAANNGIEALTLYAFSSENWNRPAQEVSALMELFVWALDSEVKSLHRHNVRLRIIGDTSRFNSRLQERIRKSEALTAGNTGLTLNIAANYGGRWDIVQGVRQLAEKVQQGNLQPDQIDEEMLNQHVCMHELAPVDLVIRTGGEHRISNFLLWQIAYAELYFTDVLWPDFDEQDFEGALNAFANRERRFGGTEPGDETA
Method: (§1) Cis-Prenyltransferasen entlassen während der Reaktion Diphosphat nach jedem Kondensationsschritt. Dies ist der Ansatzpunkt, der gewählt wurde, um unabhängig von der Art des Produktes den Grundumsatz zu detektieren. […] Die Dreifachbestimmungen der Enzymreaktionen wurden mit 100 µL BIOMOL Green™ Detektionsreagenz gestoppt und nach weiteren 20 min in einem Mikrotiterplattenspektrophotometer bei 620 nm gemessen. Zur Kontrolle erfolgte für jede Substratkonzentration eine Messung mit denaturiertem Enzym zu den unterschiedlichen Zeitpunkten um Selbsthydrolyse der Substrate zu berücksichtigen. Zur Quantifizierung wurde eine Pi-Standardkurve in Doppelbestimmung mitgeführt. Die Verdünnung des KPi-Standards erfolgte in Assaypuffer, wurde mit 100 µL BIOMOL Green™ Detektionsreagenz nach Ablauf der Enzymreaktion in den Test-Wells detektiert und zeitgleich nach weiteren 20 min bei 620 nm gemessen. Eine lineare Beziehung zwischen A620 nm und Pi-Konzentration ermöglichte eine Quantifizierung zwischen 80 µM-0 µM Pi.
(§2) Die Bestimmung der FPP-Kinetiken der EcUPPS sowie der ThkCPT erfolgte unter analogen Bedingungen der Bestimmung von IPP. […] Die Enzymreaktion wurde nach 60 s, 120 s, 180 s, 300 s, 600 s, 900 s oder 1200 s durch Zugabe von 100 µL BIOMOL Green™ Detektionsreagenz gestoppt und wie oben beschrieben gemessen.
(§3) Die Assaybedingungen wurden wie in Beispiel 3 beschriebenen gewählt. […] Variation von 500 - 0 µM im Fall der Elongationssubstrate erfolgte konstant mit 10 µM FPP (jedes Homoallyldiphosphat möglich).
(§4) Zur Berechnung der Umsatzraten in nkat·mg^-1 wurde verwendet: ν0 = ((A620-ABlank)⋅1000)/(2⋅m⋅t⋅[E]) [formula] v0 Anfangsgeschwindigkeit der Diphosphathydrolyse (nkat·mg^-1) A620 Absorption bei 620 nm ABlank Absorption der Kontrolle bei 620 nm m Anstieg der Phosphatstandardkurve (µM^-1) t Dauer der Enzymreaktion (s) [E] Enzymkonzentration (mg·L^-1)
(§5) Die Auswertung erfolgte durch nicht-lineare Regression nach der Hill-Gleichung mit Sigma-Plot 11. […] Substratkonzentration (µM) h Hill-Koeffizient

[2] = molecular target: T2, Thermococcus kodakaraensis cis-Prenyltransferase (ThkCPT) (Thermococcus kodakarensis, UniProt Q5JGE1); test: as above; format: biochemical; conditions: elongation substrate varied, starter FPP 10 µM, room temperature
T2 construct: made in house; host or cells: E. coli
T2 sequence (Q5JGE1 1-264): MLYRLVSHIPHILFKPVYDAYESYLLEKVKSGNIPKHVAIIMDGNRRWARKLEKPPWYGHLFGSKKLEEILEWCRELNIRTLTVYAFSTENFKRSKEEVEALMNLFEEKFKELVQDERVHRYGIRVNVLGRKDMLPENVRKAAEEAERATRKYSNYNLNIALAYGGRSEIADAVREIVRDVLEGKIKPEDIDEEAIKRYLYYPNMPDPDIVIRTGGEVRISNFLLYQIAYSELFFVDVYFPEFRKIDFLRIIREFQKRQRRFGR
Method: as §1, §2, §3, §4, §5

With `C=C(Cl)CCOP(=O)(O)OP(=O)(O)O` [Cl-BPP, 3-Chlor-3-Butenyldiphosphat] the kcat [1] was 0,0009 s^-1 and the kcat [2] was 0,0005 s^-1.
